Measured values: patent US7625841B2, “Substituted thiene-3-ylsulphonylamino(thio)carbonyltriazolin(ethi)ones” (Bayer CropScience AG, priority 2001, dated 2009)

Experiments:
Xanthium [1] = test: Post-emergence test/greenhouse; type: in vivo; conditions: greenhouse, application rate 15 gai/ha, rated after three weeks, 0%=no effect, 100%=total destruction
Procedure, shortened: (§1)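 First, active compound was mixed with acetone and emulsifier and diluted with water. Next, test plants 5-15 cm high were sprayed so the desired amount per area was delivered in 1000 l water/ha. Finally, after three weeks, damage was scored in % against untreated plants.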

Alopecurus [2] = test: Post-emergence test/greenhouse; type: in vivo; conditions: greenhouse, application rate 15 gai/ha, rated after three weeks, 0%=no effect, 100%=total destruction
Procedure, shortened: as §1

Polygonum [3] = test: Post-emergence test/greenhouse; type: in vivo; conditions: greenhouse, application rate 15 gai/ha, rated after three weeks, 0%=no effect, 100%=total destruction
Procedure, shortened: as §1

Lolium [4] = test: Post-emergence test/greenhouse; type: in vivo; conditions: greenhouse, application rate 15 gai/ha, rated after three weeks, 0%=no effect, 100%=total destruction
Procedure, shortened: as §1

Digitaria [5] = test: Post-emergence test/greenhouse; type: in vivo; conditions: greenhouse, application rate 15 gai/ha, rated after three weeks, 0%=no effect, 100%=total destruction
Procedure, shortened: as §1

maize [6] = test: Post-emergence test/greenhouse; type: in vivo; conditions: greenhouse, application rate 15 gai/ha, rated after three weeks, 0%=no effect, 100%=total destruction
Procedure, shortened: as §1

Viola = test: Post-emergence test/greenhouse; type: in vivo; conditions: greenhouse, application rate 15 gai/ha, rated after three weeks, 0%=no effect, 100%=total destruction
Procedure, shortened: as §1

Echinochloa = test: Post-emergence test/greenhouse; type: in vivo; conditions: greenhouse, application rate 15 gai/ha, rated after three weeks, 0%=no effect, 100%=total destruction
Procedure, shortened: as §1

rape = test: Post-emergence test/greenhouse; type: in vivo; conditions: greenhouse, application rate 15 gai/ha, rated after three weeks, 0%=no effect, 100%=total destruction
Procedure, shortened: as §1

Bromus [7] = test: Post-emergence test/greenhouse; type: in vivo; conditions: greenhouse, application rate 15 gai/ha, rated after three weeks, 0%=no effect, 100%=total destruction
Procedure, shortened: as §1

Avena fatua [8] = test: Post-emergence test/greenhouse; type: in vivo; conditions: greenhouse, application rate 15 gai/ha, rated after three weeks, 0%=no effect, 100%=total destruction
Procedure, shortened: as §1

Setaria [9] = test: Post-emergence test/greenhouse; type: in vivo; conditions: greenhouse, application rate 15 gai/ha, rated after three weeks, 0%=no effect, 100%=total destruction
Procedure, shortened: as §1

Datura = test: Post-emergence test/greenhouse; type: in vivo; conditions: greenhouse, application rate 15 gai/ha, rated after three weeks, 0%=no effect, 100%=total destruction
Procedure, shortened: as §1

Chenopodium [10] = test: Post-emergence test/greenhouse; type: in vivo; conditions: greenhouse, application rate 15 gai/ha, rated after three weeks, 0%=no effect, 100%=total destruction
Procedure, shortened: as §1

wheat [11] = test: Post-emergence test/greenhouse; type: in vivo; conditions: greenhouse, application rate 15 gai/ha, rated after three weeks, 0%=no effect, 100%=total destruction
Procedure, shortened: as §1

Galium = test: Pre-emergence test/greenhouse; type: in vivo; conditions: greenhouse, application rate 15 gai/ha, rated after three weeks, 0%=no effect, 100%=total destruction
Procedure, shortened: (§2)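 Active compound mixed with acetone, emulsifier added, concentrate diluted with water to the required rate. Seeds sown in normal soil, soil sprayed after 24 hours at a water volume of 1000 l/ha. Plants assessed three weeks later for % damage against untreated plants.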

Xanthium [12] = test: Pre-emergence test/greenhouse; type: in vivo; conditions: Xanthium, 504 h, greenhouse, application rate 15 gai/ha, rated after three weeks, 0%=no effect, 100%=total destruction, read-out: degree of damage to the plants, Xanthium
Procedure, shortened: as §2

Alopecurus [13] = test: Pre-emergence test/greenhouse; type: in vivo; conditions: greenhouse, application rate 15 gai/ha, rated after three weeks, 0%=no effect, 100%=total destruction
Procedure, shortened: as §2

Polygonum [14] = test: Pre-emergence test/greenhouse; type: in vivo; conditions: greenhouse, application rate 15 gai/ha, rated after three weeks, 0%=no effect, 100%=total destruction
Procedure, shortened: as §2

Lolium [15] = test: Pre-emergence test/greenhouse; type: in vivo; conditions: greenhouse, application rate 15 gai/ha, rated after three weeks, 0%=no effect, 100%=total destruction; for pest or weed control at 15 g/ha: Lolium, 504 h, read-out: degree of damage to the plants, Lolium
Procedure, shortened: as §2

Digitaria [16] = test: Pre-emergence test/greenhouse; type: in vivo; conditions: greenhouse, application rate 15 gai/ha, rated after three weeks, 0%=no effect, 100%=total destruction
Procedure, shortened: as §2

Stellaria = test: Pre-emergence test/greenhouse; type: in vivo; conditions: greenhouse, application rate 15 gai/ha, rated after three weeks, 0%=no effect, 100%=total destruction; for pest or weed control at 15 g/ha: Stellaria, 504 h, read-out: degree of damage to the plants, Stellaria
Procedure, shortened: as §2

maize [17] = test: Pre-emergence test/greenhouse; type: in vivo; conditions: Zea mays, 504 h, greenhouse, application rate 15 gai/ha, rated after three weeks, 0%=no effect, 100%=total destruction, read-out: degree of damage to the plants, maize
Procedure, shortened: as §2

Matricaria = test: Pre-emergence test/greenhouse; type: in vivo; conditions: Matricaria, 504 h, greenhouse, application rate 15 gai/ha, rated after three weeks, 0%=no effect, 100%=total destruction, read-out: degree of damage to the plants, Matricaria
Procedure, shortened: as §2

Bromus [18] = test: Pre-emergence test/greenhouse; type: in vivo; conditions: greenhouse, application rate 15 gai/ha, rated after three weeks, 0%=no effect, 100%=total destruction
Procedure, shortened: as §2

Avena fatua [19] = test: Pre-emergence test/greenhouse; type: in vivo; conditions: greenhouse, application rate 15 gai/ha, rated after three weeks, 0%=no effect, 100%=total destruction
Procedure, shortened: as §2

Setaria [20] = test: Pre-emergence test/greenhouse; type: in vivo; conditions: greenhouse, application rate 15 gai/ha, rated after three weeks, 0%=no effect, 100%=total destruction
Procedure, shortened: as §2

Solanum = test: Pre-emergence test/greenhouse; type: in vivo; conditions: greenhouse, application rate 15 gai/ha, rated after three weeks, 0%=no effect, 100%=total destruction
Procedure, shortened: as §2

Chenopodium [21] = test: Pre-emergence test/greenhouse; type: in vivo; conditions: greenhouse, application rate 15 gai/ha, rated after three weeks, 0%=no effect, 100%=total destruction
Procedure, shortened: as §2

wheat [22] = test: Pre-emergence test/greenhouse; type: in vivo; conditions: Triticum aestivum, 504 h, greenhouse, application rate 15 gai/ha, rated after three weeks, 0%=no effect, 100%=total destruction, read-out: degree of damage to the plants, wheat
Procedure, shortened: as §2

soybeans = test: Pre-emergence test/greenhouse; type: in vivo; conditions: greenhouse, application rate 15 gai/ha, rated after three weeks, 0%=no effect, 100%=total destruction
Procedure, shortened: as §2

[23] = system: crop plants such as, for example, maize, oilseed rape and wheat; test: Post-emergence test, summary for crop plants; type: in vivo
Procedure, shortened: as §1

[24] = system: crop plants, such as, for example, maize, soyabean and wheat; test: Pre-emergence test, summary for crop plants; type: in vivo
Procedure, shortened: as §2

weeds [25] = test: Post-emergence test, summary for weeds; type: in vivo
Procedure, shortened: as §1

Amaranthus = test: Pre-emergence test/greenhouse; type: in vivo; conditions: greenhouse, application rate 15 gai/ha, rated after three weeks, 0%=no effect, 100%=total destruction
Procedure, shortened: as §2

weeds [26] = test: Pre-emergence test, summary for weeds; type: in vivo
Procedure, shortened: as §2

SMILES | degree of damage to the plants, Xanthium (Xanthium [1]) | degree of damage to the plants, Alopecurus (Alopecurus [2]) | degree of damage to the plants, Polygonum (Polygonum [3]) | degree of damage to the plants, Lolium (Lolium [4]) | degree of damage to the plants, maize (maize [6]) | degree of damage to the plants, Viola (Viola) | degree of damage to the plants, Echinochloa (Echinochloa) | degree of damage to the plants, rape (rape) | degree of damage to the plants, Datura (Datura) | degree of damage to the plants, Chenopodium (Chenopodium [10]) | degree of damage to the plants, wheat (wheat [11]) | degree of damage to the plants, Galium (Galium) | pest or weed control at 15 g/ha (Xanthium [12]) | pest or weed control at 15 g/ha (Lolium [15]) | pest or weed control at 15 g/ha (Stellaria) | plant injury at 15 g/ha (maize [17]) | pest or weed control at 15 g/ha (Matricaria) | degree of damage to the plants, Bromus (Bromus [18]) | degree of damage to the plants, Avena fatua (Avena fatua [19]) | degree of damage to the plants, Setaria (Setaria [20]) | other results
CCCOc1nn(C(=O)NS(=O)(=O)c2c(C(=O)OC)csc2C)c(=O)n1C [(A), methyl 4-[[[(4,5-dihydro-4-methyl-5-oxo-3-n-propoxy-1H-1,2,4-triazol-1-yl)carbonyl]-amino]sulfonyl]-5-methyl-3-thiophenecarboxylate, reference compound] | 70% | 70% | 50% | 30% | 30% | 30% | 60% | 95% | 50% | 80% | 0% | 10% | 0% | 0% | 80% | 0% | 50% | 60% | 0% | 0% | degree of damage to the plants, Digitaria (Digitaria [5]): 10%; degree of damage to the plants, Bromus (Bromus [7]): 50%; degree of damage to the plants, Avena fatua (Avena fatua [8]): 30%; degree of damage to the plants, Setaria (Setaria [9]): 30%; degree of damage to the plants, Alopecurus (Alopecurus [13]): 60%; degree of damage to the plants, Polygonum (Polygonum [14]): 0%; degree of damage to the plants, Digitaria (Digitaria [16]): 0%; degree of damage to the plants, Solanum (Solanum): 80%; degree of damage to the plants, Chenopodium (Chenopodium [21]): 50%; plant injury at 15 g/ha (wheat [22]): 0%; degree of damage to the plants, soybeans (soybeans): 0%
CCOC(=O)c1csc(C)c1S(=O)(=O)NC(=O)n1nc(OC)n(C)c1=O [Example 1, ethyl 4-[[[(3-methoxy-4-methyl-5-oxo-1H-1,2,4-triazol-1-yl)carbonyl]amino]sulfonyl]-5-methyl-3-thiophenecarboxylate] | 95% |  | 95% | 90% | 0% | 95% | 90% |  | 95% |  | 0% |  | 95% | 90% | 100% | 0% | 100% | 95% |  |  | compatibility with crop plants compared with the known compounds (A) and (B) [23]: substantially better compatibility with crop plants; melting point: 176 °C; tolerance by crop plants [24]: tolerated well by crop plants; activity against weeds compared with the known compounds (A) and (B) (weeds [25]): considerably stronger activity against weeds; degree of damage to the plants, Amaranthus (Amaranthus): 100%; degree of damage to the plants, Solanum (Solanum): 100%; plant injury at 15 g/ha (wheat [22]): 0%; activity against weeds compared with the known compounds (A) to (G) (weeds [26]): considerably stronger activity against weeds
CCCc1nn(C(=O)NS(=O)(=O)c2c(C(=O)OC)csc2C)c(=O)n1OC [Example 42] |  | 90% |  | 90% |  |  | 90% | 0% |  | 95% |  | 100% |  |  |  |  |  | 95% | 90% | 95% | compatibility with crop plants compared with the known compounds (A) and (B) [23]: substantially better compatibility with crop plants; tolerance by crop plants [24]: tolerated well by crop plants; activity against weeds compared with the known compounds (A) and (B) (weeds [25]): considerably stronger activity against weeds; degree of damage to the plants, Lolium (Lolium [15]): 95%; degree of damage to the plants, Amaranthus (Amaranthus): 100%; degree of damage to the plants, Stellaria (Stellaria): 100%; activity against weeds compared with the known compounds (A) to (G) (weeds [26]): considerably stronger activity against weeds
